Measured values from PubChem BioAssay AID330 (DTP/NCI, 2004).
Values joined by “and” are separate entries in the source; they are usually repeats but may differ in a detail not shown here. Equal entries are not always repeated. Inconclusive results and toxic doses are left out. The calls were made as follows: active = survival T/C of 150% or more; inactive = T/C below 125% in these data.

System: P388 leukemia ip, CD2F1 mice, survival T/C
Test: NCI In Vivo Anticancer Drug Screen. Data for tumor model P388 Leukemia (intraperitoneal) in CD2F1 (CDF1) mice
Details: endpoint: median survival time, higher = longer survival
Method in brief: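 Mice carrying the transplanted tumor received test compound or vehicle. Survival was recorded in each group, and the value is the treated-group measurement divided by that of the vehicle-treated control group.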

[1] = dose: 60.0 mg/kg/injection, schedule: Q01DX005 (ip), vehicle: saline with Tween-80
[2] = dose: 120.0 mg/kg/injection, schedule: Q01DX005 (ip), vehicle: saline with Tween-80
[3] = dose: 240.0 mg/kg/injection, schedule: Q01DX005 (ip), vehicle: saline with Tween-80
[4] = dose: 12.5 mg/kg/injection, schedule: Q01DX005 (ip), vehicle: Klucel (hydroxypropylcellulose) (HPC)
[5] = dose: 25.0 mg/kg/injection, schedule: Q01DX005 (ip), vehicle: Klucel (hydroxypropylcellulose) (HPC)
[6] = dose: 50.0 mg/kg/injection, schedule: Q01DX005 (ip), vehicle: Klucel (hydroxypropylcellulose) (HPC)
[7] = dose: 100.0 mg/kg/injection, schedule: Q01DX005 (ip), vehicle: Klucel (hydroxypropylcellulose) (HPC)

Measured: T/C

Brc1ccc(/C=C/c2ccncc2)cc1
inactive: dose: 50.0 mg/kg/injection, schedule: Q01DX005 (ip), vehicle: saline with Tween-80 104 % of control | dose: 100.0 mg/kg/injection, schedule: Q01DX005 (ip), vehicle: saline with Tween-80 99 % of control | dose: 200.0 mg/kg/injection, schedule: Q01DX005 (ip), vehicle: saline with Tween-80 93 % of control

CC(=O)Oc1ccc2c3c1CCCN3CCC2
inactive: [1] 108 % of control | [2] 101 % of control | [3] 102 % of control

C(=C\c1cc2ccc(C3=NCCN3)cc2o1)/c1cc2ccc(C3=NCCN3)cc2o1
inactive: dose: 12.5 mg/kg/injection, schedule: Q04DX003 (ip), vehicle: suspension in saline 107 % of control | dose: 25.0 mg/kg/injection, schedule: Q04DX003 (ip), vehicle: suspension in saline 114 % of control | dose: 50.0 mg/kg/injection, schedule: Q04DX003 (ip), vehicle: suspension in saline 106 % of control | dose: 100.0 mg/kg/injection, schedule: Q04DX003 (ip), vehicle: suspension in saline 122 % of control

CCSc1n[nH]c(=O)n1C
inactive: dose: 50.0 mg/kg/injection, schedule: Q01DX005 (ip), vehicle: saline 99 % of control and 110 % of control | dose: 100.0 mg/kg/injection, schedule: Q01DX005 (ip), vehicle: saline 108 % of control and 114 % of control and 97 % of control | dose: 200.0 mg/kg/injection, schedule: Q01DX005 (ip), vehicle: saline 108 % of control and 121 % of control and 98 % of control | dose: 400.0 mg/kg/injection, schedule: Q01DX005 (ip), vehicle: saline 101 % of control and 109 % of control

CC(C)(C)NC1=NCCNC(c2ccccc2)=C1
inactive: dose: 6.25 mg/kg/injection, schedule: Q01DX005 (ip), vehicle: saline 98 % of control | dose: 12.5 mg/kg/injection, schedule: Q01DX005 (ip), vehicle: saline 100 % of control | dose: 25.0 mg/kg/injection, schedule: Q01DX005 (ip), vehicle: saline 92 % of control

O=C1Sc2ccccc2C(=O)N2CCCC12 (centres undefined)
inactive: [1] 97 % of control | [2] 99 % of control | [3] 100 % of control

O=C(NC(=S)Nc1ccsc1)c1ccccc1
inactive: dose: 50.0 mg/kg/injection, schedule: Q01DX009 (ip), vehicle: saline with Tween-80 90 % of control | dose: 100.0 mg/kg/injection, schedule: Q01DX009 (ip), vehicle: saline with Tween-80 88 % of control

CC(=O)O[C@@H]1C[C@@]2(C)C(CC(=O)[C@@H](C)[C@@H]2CC(=O)c2ccoc2)[C@@H](CO)[C@@H]1O (some centres undefined)
inactive: [4] 103 % of control | [5] 100 % of control | [6] 109 % of control | [7] 106 % of control | dose: 100.0 mg/kg/injection, schedule: Q01DX005 (ip), vehicle: Klucel + Tween-80 107 % of control | dose: 200.0 mg/kg/injection, schedule: Q01DX005 (ip), vehicle: Klucel + Tween-80 107 % of control | dose: 400.0 mg/kg/injection, schedule: Q01DX005 (ip), vehicle: Klucel + Tween-80 101 % of control

CCC(C)([N+](=O)[O-])[N+](=O)[O-]
inactive: dose: 0.19 mg/kg/injection, schedule: Q01DX009 (ip), vehicle: Klucel (hydroxypropylcellulose) (HPC) 102 % of control | dose: 0.39 mg/kg/injection, schedule: Q01DX009 (ip), vehicle: Klucel (hydroxypropylcellulose) (HPC) 97 % of control | dose: 0.78 mg/kg/injection, schedule: Q01DX009 (ip), vehicle: Klucel (hydroxypropylcellulose) (HPC) 99 % of control and 96 % of control

NC1=C(O)C(=O)C2(O1)C(=O)Nc1ccccc12 (centres undefined)
inactive: [6] 100 % of control | [7] 100 % of control | dose: 200.0 mg/kg/injection, schedule: Q01DX005 (ip), vehicle: Klucel (hydroxypropylcellulose) (HPC) 106 % of control

OC(Cc1cccnc1)(c1ccccc1)c1cccc2ccccc12 (centres undefined)
inactive: dose: 100.0 mg/kg/injection, schedule: Q04DX003 (ip), vehicle: saline with Tween-80 90 % of control | dose: 200.0 mg/kg/injection, schedule: Q04DX003 (ip), vehicle: saline with Tween-80 86 % of control

C/C(=N\NC(=S)N1CCCCCC1)c1cc2ccccc2cn1
inactive: dose: 3.12 mg/kg/injection, schedule: Q01DX005 (ip), vehicle: distilled water + Tween-80 + alcohol 100 % of control | dose: 6.25 mg/kg/injection, schedule: Q01DX005 (ip), vehicle: Klucel (hydroxypropylcellulose) (HPC) 117 % of control | dose: 6.25 mg/kg/injection, schedule: Q01DX005 (ip), vehicle: distilled water + Tween-80 + alcohol 111 % of control | [4] 116 % of control | dose: 12.5 mg/kg/injection, schedule: Q01DX005 (ip), vehicle: distilled water + Tween-80 + alcohol 105 % of control | [5] 121 % of control | dose: 25.0 mg/kg/injection, schedule: Q01DX005 (ip), vehicle: distilled water + Tween-80 + alcohol 118 % of control
